Paper PMC5218480 (PLoS ONE, 2017)

System: MV-4-11 cells
Assay: Gene expression microarray analysis (Affymetrix PrimeView) and GSEA
Assay type: cell-based, human
Parameters: RFU PODN (11730768_x_at) / Fold change /veh PODN (11730768_x_at) / RFU LINC00158 (11744669_a_at) / Fold change /veh LINC00158 (11744669_a_at) / RFU DUSP10 (11751237_a_at) / Fold change /veh DUSP10 (11751237_a_at) / RFU ID3 (11757404_x_at) / Fold change /veh ID3 (11757404_x_at) / RFU PLEKHG5 (11737974_s_at) / Fold change /veh PLEKHG5 (11737974_s_at) / RFU LRRC4B (11730491_at) / Fold change /veh LRRC4B (11730491_at) / RFU GIMAP4 (11747438_a_at) / Fold change /veh GIMAP4 (11747438_a_at) / RFU KRT8 (11758183_x_at) / Fold change /veh KRT8 (11758183_x_at) / RFU CNN1 (11734310_a_at) / Fold change /veh CNN1 (11734310_a_at) / RFU VPS37D (11726825_at) / Fold change /veh VPS37D (11726825_at) / RFU C10orf10 (11716522_x_at) / Fold change /veh C10orf10 (11716522_x_at) / RFU KIR2DL2 /// KIR2DL4 /// KIR2DL5A /// KIR2DL5B /// KIR2DS1 /// KIR2DS2 /// KIR2DS3 /// KIR2DS4 /// KIR3DL3 /// KIR3DL3 /// KIR3DS1 (11738374_at) / Fold change /veh KIR2DL2 /// KIR2DL4 /// KIR2DL5A /// KIR2DL5B /// KIR2DS1 /// KIR2DS2 /// KIR2DS3 /// KIR2DS4 /// KIR3DL3 /// KIR3DL3 /// KIR3DS1 (11738374_at) / RFU C1QL1 (11718748_at) / Fold change /veh C1QL1 (11718748_at) / RFU TMPRSS4 (11747572_a_at) / Fold change /veh TMPRSS4 (11747572_a_at) / RFU HAMP (11756126_x_at) / Fold change /veh HAMP (11756126_x_at) / RFU RNFT2 (11725882_a_at) / Fold change /veh RNFT2 (11725882_a_at) / RFU NR4A2 (11747474_a_at) / Fold change /veh NR4A2 (11747474_a_at) / RFU ABCC12 (11746883_a_at) / Fold change /veh ABCC12 (11746883_a_at) / RFU TMEM136 (11760407_x_at) / Fold change /veh TMEM136 (11760407_x_at) / RFU CLDN22 /// WWC2 (11732394_at) / Fold change /veh CLDN22 /// WWC2 (11732394_at) / RFU HLA-DPB1 (11760878_x_at) / Fold change /veh HLA-DPB1 (11760878_x_at) / RFU SPINT1 (11716480_a_at) / Fold change /veh SPINT1 (11716480_a_at) / RFU GAP43 (11754022_s_at) / Fold change /veh GAP43 (11754022_s_at) / RFU A4GNT (11735810_at) / Fold change /veh A4GNT (11735810_at) / RFU PRB3 (11715151_x_at) / Fold change /veh PRB3 (11715151_x_at) / RFU TUBB4B (11761932_at) / Fold change /veh TUBB4B (11761932_at) / RFU CAPN14 (11732068_a_at) / Fold change /veh CAPN14 (11732068_a_at) / RFU TMCC2 (11721928_a_at) / Fold change /veh TMCC2 (11721928_a_at) / RFU IRGQ (11745062_a_at) / Fold change /veh IRGQ (11745062_a_at) / RFU FAM174B (11720279_a_at) / Fold change /veh FAM174B (11720279_a_at) / RFU TMPRSS4 (11748680_a_at) / Fold change /veh TMPRSS4 (11748680_a_at) / RFU FAM212B (11763350_a_at) / Fold change /veh FAM212B (11763350_a_at) / RFU PLEKHG5 (11743358_a_at) / Fold change /veh PLEKHG5 (11743358_a_at) / RFU ZSCAN30 (11745921_a_at) / Fold change /veh ZSCAN30 (11745921_a_at) / RFU CMKLR1 (11741424_a_at) / Fold change /veh CMKLR1 (11741424_a_at) / RFU LOC101060620 /// MAPK8IP1 (11723275_at) / Fold change /veh LOC101060620 /// MAPK8IP1 (11723275_at) / RFU SPTSSB (11747773_x_at) / Fold change /veh SPTSSB (11747773_x_at) / RFU PRSS12 (11739890_at) / Fold change /veh PRSS12 (11739890_at) / RFU BIN1 (11741810_x_at) / Fold change /veh BIN1 (11741810_x_at) / RFU WNT11 (11732464_a_at) / Fold change /veh WNT11 (11732464_a_at) / RFU C10orf10 (11716521_a_at) / Fold change /veh C10orf10 (11716521_a_at) / RFU C5orf56 (11738089_at) / Fold change /veh C5orf56 (11738089_at) / RFU CYB561 (11721691_x_at) / Fold change /veh CYB561 (11721691_x_at) / RFU ANKRD19P (11752326_a_at) / Fold change /veh ANKRD19P (11752326_a_at) / RFU OR2T12 /// OR2T33 /// OR2T8 (11738714_s_at) / Fold change /veh OR2T12 /// OR2T33 /// OR2T8 (11738714_s_at) / RFU VCAN (11748164_a_at) / Fold change /veh VCAN (11748164_a_at) / RFU JSRP1 (11732532_at) / Fold change /veh JSRP1 (11732532_at) / RFU KRTAP10-11 (11738290_x_at) / Fold change /veh KRTAP10-11 (11738290_x_at) / RFU MYO3A (11730013_a_at) / Fold change /veh MYO3A (11730013_a_at) / RFU EBF3 (11725865_a_at) / Fold change /veh EBF3 (11725865_a_at) / RFU CAMK2N1 (11719241_x_at) / Fold change /veh CAMK2N1 (11719241_x_at) / RFU C5orf56 (11738088_a_at) / Fold change /veh C5orf56 (11738088_a_at) / RFU OLFML3 (11715873_a_at) / Fold change /veh OLFML3 (11715873_a_at) / RFU LOC100653217 /// NTM (11731650_a_at) / Fold change /veh LOC100653217 /// NTM (11731650_a_at) / RFU MAPK11 (11762145_a_at) / Fold change /veh MAPK11 (11762145_a_at) / RFU FIZ1 (11724087_x_at) / Fold change /veh FIZ1 (11724087_x_at) / RFU OASL (11726364_x_at) / Fold change /veh OASL (11726364_x_at) / RFU SOX15 (11748057_x_at) / Fold change /veh SOX15 (11748057_x_at) / RFU CD79A (11719716_a_at) / Fold change /veh CD79A (11719716_a_at) / RFU HIST1H1D (11736915_at) / Fold change /veh HIST1H1D (11736915_at) / RFU CASKIN2 (11723855_a_at) / Fold change /veh CASKIN2 (11723855_a_at) / RFU LOC730098 (11760151_x_at) / Fold change /veh LOC730098 (11760151_x_at) / RFU OR4N2 (11742367_at) / Fold change /veh OR4N2 (11742367_at) / RFU PRRT2 (11749266_a_at) / Fold change /veh PRRT2 (11749266_a_at) / RFU SNX32 (11753110_a_at) / Fold change /veh SNX32 (11753110_a_at) / RFU CDHR5 (11726645_a_at) / Fold change /veh CDHR5 (11726645_a_at) / RFU RCAN1 (11760418_a_at) / Fold change /veh RCAN1 (11760418_a_at) / RFU FAM167A (11723789_a_at) / Fold change /veh FAM167A (11723789_a_at) / RFU FAM26E (11764081_at) / Fold change /veh FAM26E (11764081_at) / RFU ISYNA1 (11749810_s_at) / Fold change /veh ISYNA1 (11749810_s_at) / RFU ACY1 (11761880_at) / Fold change /veh ACY1 (11761880_at) / RFU 11764098_at / Fold change /veh 11764098_at / RFU SAMD14 (11745864_x_at) / Fold change /veh SAMD14 (11745864_x_at) / RFU NPB (11741838_a_at) / Fold change /veh NPB (11741838_a_at) / RFU TMPRSS6 (11731388_a_at) / Fold change /veh TMPRSS6 (11731388_a_at) / RFU KRTAP10-2 (11738614_at) / Fold change /veh KRTAP10-2 (11738614_at) / RFU ARHGAP8 /// PRR5-ARHGAP8 (11727945_x_at) / Fold change /veh ARHGAP8 /// PRR5-ARHGAP8 (11727945_x_at) / RFU KRTAP5-7 /// NADSYN1 (11734609_at) / Fold change /veh KRTAP5-7 /// NADSYN1 (11734609_at) / RFU RASL12 (11751679_a_at) / Fold change /veh RASL12 (11751679_a_at) / RFU CDKN2B (11736163_a_at) / Fold change /veh CDKN2B (11736163_a_at) / RFU PRF1 (11729649_at) / Fold change /veh PRF1 (11729649_at) / RFU, ZNF638 /// ZNF638-IT1 / Fold change vs veh, ZNF638 /// ZNF638-IT1 / RFU, PANK3 / Fold change vs veh, PANK3 / RFU, SH3YL1 / Fold change vs veh, SH3YL1 / RFU, ZEB2 / Fold change vs veh, ZEB2 / RFU, NRIP1 / Fold change vs veh, NRIP1 / RFU, PTTG1IP / Fold change vs veh, PTTG1IP / RFU, CAPN2 / Fold change vs veh, CAPN2 / RFU, MED14 / Fold change vs veh, MED14 / RFU, SNORA58 / Fold change vs veh, SNORA58 / RFU, C1orf63 / Fold change vs veh, C1orf63 / RFU, LRRFIP1 / Fold change vs veh, LRRFIP1 / RFU, NDUFAF7 / Fold change vs veh, NDUFAF7 / RFU, SLC12A2 / Fold change vs veh, SLC12A2 / RFU, IBTK / Fold change vs veh, IBTK / RFU, ESF1 / Fold change vs veh, ESF1 / Fold change vs veh, TMEM50B / RFU, TAOK1 / Fold change vs veh, TAOK1 / RFU, ACBD3 / Fold change vs veh, ACBD3 / RFU, TMA16 / Fold change vs veh, TMA16 / RFU, RWDD3 / Fold change vs veh, RWDD3 / RFU, BCAT1 / Fold change vs veh, BCAT1 / RFU, EDEM3 / Fold change vs veh, EDEM3 / RFU, TMEM33 / Fold change vs veh, TMEM33 / RFU, WDR75 / Fold change vs veh, WDR75 / RFU, AHCTF1 / Fold change vs veh, AHCTF1 / RFU, TFRC / Fold change vs veh, TFRC / RFU, ZDHHC17 / Fold change vs veh, ZDHHC17 / RFU, NOM1 / Fold change vs veh, NOM1 / RFU, ARL8B / Fold change vs veh, ARL8B / RFU, ZBTB11 / Fold change vs veh, ZBTB11 / RFU, TAMM41 / Fold change vs veh, TAMM41 / RFU, KIAA1704 /// LOC100996395 / Fold change vs veh, KIAA1704 /// LOC100996395 / RFU, ING1 / Fold change vs veh, ING1 / RFU, TRMT61B / Fold change vs veh, TRMT61B / RFU, FUBP3 / Fold change vs veh, FUBP3 / RFU, TP53 / Fold change vs veh, TP53 / RFU, TNKS2 / Fold change vs veh, TNKS2 / RFU, ZFP14 / Fold change vs veh, ZFP14 / RFU, ACTR2 / Fold change vs veh, ACTR2 / RFU, PPP3R1 / Fold change vs veh, PPP3R1 / RFU, PIK3R1 / Fold change vs veh, PIK3R1 / RFU, HNRNPA1 / Fold change vs veh, HNRNPA1 / RFU, RNF170 / Fold change vs veh, RNF170 / RFU, ZNF28 / Fold change vs veh, ZNF28 / RFU, RNGTT / Fold change vs veh, RNGTT / RFU, OGT / Fold change vs veh, OGT / RFU, BRD1 / Fold change vs veh, BRD1 / RFU, MARS / Fold change vs veh, MARS / RFU, ZNF655 / Fold change vs veh, ZNF655 / RFU, FAHD1 / Fold change vs veh, FAHD1 / RFU, BDP1 / Fold change vs veh, BDP1 / RFU, LRRCC1 / Fold change vs veh, LRRCC1 / RFU, ARID1A / Fold change vs veh, ARID1A / RFU, ZNF146 / Fold change vs veh, ZNF146 / RFU, ZNF330 / Fold change vs veh, ZNF330 / RFU, GPN3 / Fold change vs veh, GPN3 / RFU, C9orf123 / Fold change vs veh, C9orf123 / RFU, N4BP2L2 / Fold change vs veh, N4BP2L2 / RFU, ARFIP1 / Fold change vs veh, ARFIP1 / RFU, FAM179B / Fold change vs veh, FAM179B / RFU, BCL10 / Fold change vs veh, BCL10 / RFU, UHRF1BP1L / Fold change vs veh, UHRF1BP1L / RFU, BET1 / Fold change vs veh, BET1 / RFU, CNOT2 / Fold change vs veh, CNOT2 / RFU, ZNF268 / Fold change vs veh, ZNF268 / Fold change vs veh, ZNF507 / RFU, DGCR2 / Fold change vs veh, DGCR2 / RFU, WDSUB1 / Fold change vs veh, WDSUB1 / Fold change vs veh, HSP90B1 /// MIR3652 / RFU, ADSS / Fold change vs veh, ADSS / RFU, GK / Fold change vs veh, GK / RFU, ZNF148 / Fold change vs veh, ZNF148 / RFU, TAF9 / Fold change vs veh, TAF9 / RFU, SLC1A5 / Fold change vs veh, SLC1A5 / RFU, SLMO2 / Fold change vs veh, SLMO2 / RFU, ABCC4 / Fold change vs veh, ABCC4 / RFU, LOC101060439 /// RAP1B / Fold change vs veh, LOC101060439 /// RAP1B / RFU, RFX7 / Fold change vs veh, RFX7 / RFU, GTPBP10 / Fold change vs veh, GTPBP10 / RFU, CNEP1R1 / Fold change vs veh, CNEP1R1 / RFU, BIVM-ERCC5 /// ERCC5 / Fold change vs veh, BIVM-ERCC5 /// ERCC5 / RFU, ILF3 / Fold change vs veh, ILF3 / RFU 11762660_at / Fold change /veh 11762660_at / RFU VCAN (11757783_s_at) / Fold change /veh VCAN (11757783_s_at) / RFU DDX43 (11728927_at) / Fold change /veh DDX43 (11728927_at) / RFU KRT8 (11758188_x_at) / Fold change /veh KRT8 (11758188_x_at) / RFU NKD1 (11759106_at) / Fold change /veh NKD1 (11759106_at) / RFU SRD5A1 (11742802_a_at) / Fold change /veh SRD5A1 (11742802_a_at) / RFU TPSAB1 /// TPSB2 (11721975_s_at) / Fold change /veh TPSAB1 /// TPSB2 (11721975_s_at) / RFU GSTM3 (11746129_a_at) / Fold change /veh GSTM3 (11746129_a_at) / RFU IL23R (11737362_x_at) / Fold change /veh IL23R (11737362_x_at) / RFU TMEM51 (11727254_a_at) / Fold change /veh TMEM51 (11727254_a_at) / RFU PIWIL2 (11732686_x_at) / Fold change /veh PIWIL2 (11732686_x_at) / RFU ORM1 (11744905_x_at) / Fold change /veh ORM1 (11744905_x_at) / RFU CCDC152 (11743942_at) / Fold change /veh CCDC152 (11743942_at) / RFU ECM1 (11717891_a_at) / Fold change /veh ECM1 (11717891_a_at) / RFU IL23R (11748794_a_at) / Fold change /veh IL23R (11748794_a_at) / RFU TNFAIP8L3 (11732012_x_at) / Fold change /veh TNFAIP8L3 (11732012_x_at) / RFU MBOAT4 (11741988_at) / Fold change /veh MBOAT4 (11741988_at) / RFU 11764193_at / Fold change /veh 11764193_at / RFU TMEM53 (11763286_at) / Fold change /veh TMEM53 (11763286_at) / RFU MAGEB2 (11727129_at) / Fold change /veh MAGEB2 (11727129_at) / RFU TMEM200A (11744735_a_at) / Fold change /veh TMEM200A (11744735_a_at) / RFU CCDC152 (11751479_a_at) / Fold change /veh CCDC152 (11751479_a_at) / RFU FAM211A (11726209_a_at) / Fold change /veh FAM211A (11726209_a_at) / RFU RGS16 (11746705_a_at) / Fold change /veh RGS16 (11746705_a_at) / RFU VCAN (11755009_s_at) / Fold change /veh VCAN (11755009_s_at) / RFU RHOB (11743442_s_at) / Fold change /veh RHOB (11743442_s_at) / RFU RGS16 (11720943_a_at) / Fold change /veh RGS16 (11720943_a_at) / RFU RGS16 (11720944_at) / Fold change /veh RGS16 (11720944_at) / RFU, VPS4B / Fold change vs veh, VPS4B / RFU, CREB1 / Fold change vs veh, CREB1 / RFU, DNAJC13 / Fold change vs veh, DNAJC13 / RFU, GNAQ / Fold change vs veh, GNAQ / RFU, CDK5R1 / Fold change vs veh, CDK5R1 / RFU, ZRANB3 / Fold change vs veh, ZRANB3 / RFU, CUL4A / Fold change vs veh, CUL4A / RFU, CCNY / Fold change vs veh, CCNY / RFU, UFL1 / Fold change vs veh, UFL1 / RFU, COG3 / Fold change vs veh, COG3 / RFU, DIAPH2 / Fold change vs veh, DIAPH2 / RFU, SKA2 / Fold change vs veh, SKA2 / RFU, AFF3 / Fold change vs veh, AFF3 / RFU, LMF1 / Fold change vs veh, LMF1 / RFU, IPO11 / Fold change vs veh, IPO11 / RFU, DFFB / Fold change vs veh, DFFB / RFU, FOXP1 / Fold change vs veh, FOXP1 / RFU, CARD8 / Fold change vs veh, CARD8 / RFU, STRN3 / Fold change vs veh, STRN3 / RFU, ADK / Fold change vs veh, ADK / RFU, RASSF2 / Fold change vs veh, RASSF2 / RFU, WIPF1 / Fold change vs veh, WIPF1 / RFU, LARP1B / Fold change vs veh, LARP1B / RFU, RASA1 / Fold change vs veh, RASA1 / RFU, RB1 / Fold change vs veh, RB1 / RFU, PPFIA1 / Fold change vs veh, PPFIA1 / RFU, MAT2A / Fold change vs veh, MAT2A / RFU, CCT5 / Fold change vs veh, CCT5 / RFU, WDR92 / Fold change vs veh, WDR92 / RFU, CUX1 / Fold change vs veh, CUX1 / RFU, TTC7A / Fold change vs veh, TTC7A / RFU, TMEM135 / Fold change vs veh, TMEM135 / RFU, DEPTOR / Fold change vs veh, DEPTOR / RFU, CPM / Fold change vs veh, CPM / RFU, DNAJB6 / Fold change vs veh, DNAJB6 / RFU, CACNA2D3 / Fold change vs veh, CACNA2D3 / RFU, DTX4 / Fold change vs veh, DTX4 / RFU, TFCP2 / Fold change vs veh, TFCP2 / RFU, GMCL1 /// GMCL1P1 / Fold change vs veh, GMCL1 /// GMCL1P1 / RFU, AEBP2 / Fold change vs veh, AEBP2 / RFU, SNHG1 /// SNORD22 /// SNORD25 /// SNORD26 /// SNORD27 /// SNORD28 /// SNORD29 /// SNORD31 / Fold change vs veh, SNHG1 /// SNORD22 /// SNORD25 /// SNORD26 /// SNORD27 /// SNORD28 /// SNORD29 /// SNORD31 / Fold change (Aza/veh), C12orf56 (ProbeSet 11735607_a_at) / Fold change (ACY-1035/veh), C12orf56 (ProbeSet 11735607_a_at) / Fold change (Aza/veh), FGFR1OP (ProbeSet 11751329_s_at) / Fold change (ACY-1035/veh), FGFR1OP (ProbeSet 11751329_s_at) / Fold change (Aza/veh), VPS36 (ProbeSet 11739960_a_at) / Fold change (ACY-1035/veh), VPS36 (ProbeSet 11739960_a_at) / RFU SYPL1 (11715823_x_at) / Fold change /veh SYPL1 (11715823_x_at) / RFU IGFBP7 (11715501_s_at) / Fold change /veh IGFBP7 (11715501_s_at) / RFU REEP3 (11722064_at) / Fold change /veh REEP3 (11722064_at) / RFU IGLL1 (11728026_x_at) / Fold change /veh IGLL1 (11728026_x_at): dose or concentration left out as unconfirmed
Conditions: MV-4-11 cells, 48 hours

Q: For `Nc1ccc(-c2cccs2)cc1NC(=O)c1ccc2c(c1)cc(C1CC1)n2CCN1CCOCC1` [ACY-1035], which “Fold change /veh CD79A (11719716_a_at)” value is on record?
A: 1.12
